This passage reports Ki results from patent US7465806B2, “Pyrrole-derivatives as factor Xa inhibitors” (SANOFI-AVENTIS Deutschland GmbH, priority 2004, dated 2008).

Usually pKi stands for the Ki on a negative log10 scale, so that one unit is a factor of ten.

The structures appear in SMILES notation. pKi: −log10 of the molar value.

The target of this test is T1, human factor Xa (Homo sapiens, UniProt P00742).
T1 construct: human factor Xa (Enzyme Research Laboratories, Inc; South Bend, Indiana); purchased Enzyme Research Laboratories, Inc; South Bend, Indiana
T1 sequence (P00742 235-488 limits assumed): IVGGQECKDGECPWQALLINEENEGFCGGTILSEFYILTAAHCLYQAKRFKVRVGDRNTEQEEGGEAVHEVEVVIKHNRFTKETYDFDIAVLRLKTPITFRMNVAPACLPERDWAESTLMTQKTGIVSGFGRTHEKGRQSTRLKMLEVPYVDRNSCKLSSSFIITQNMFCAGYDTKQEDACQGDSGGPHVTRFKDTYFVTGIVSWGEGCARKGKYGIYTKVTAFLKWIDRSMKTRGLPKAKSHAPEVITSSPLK
T1 sequence (P00742 41-179 partner limits assumed): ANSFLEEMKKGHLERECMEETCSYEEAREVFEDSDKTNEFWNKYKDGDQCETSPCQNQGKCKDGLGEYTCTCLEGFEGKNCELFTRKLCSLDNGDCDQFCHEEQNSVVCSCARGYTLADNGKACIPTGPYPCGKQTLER
Briefly: Factor Xa chromogenic assay (inhibition of factor Xa activity). It is filed as biochemical. As to conditions: inhibition constant for factor Xa; chromogenic substrate S-2765 140 μM, enzyme 0.5 nM, 25° C.; Ki calculated from IC50; read-out: Ki(FXa). As to the method:
The ability of the compounds of the formulae I and Ia to inhibit factor Xa or factor VIIa or other enzymes like thrombin, plasmin, or trypsin can be assessed by determining the concentration of the compound of the formulae I and Ia that inhibits enzyme activity by 50%, i.e. the IC50 value, which was related to the inhibition constant Ki. Purified enzymes were used in chromogenic assays. The concentration of inhibitor that causes a 50% decrease in the rate of substrate hydrolysis was determined by linear regression after plotting the relative rates of hydrolysis (compared to the uninhibited control) versus the log of the concentration of the compound of formulae I and Ia. For calculating the inhibition constant Ki, the IC50 value was corrected for competition with substrate using the formula Ki=IC50/{1+(substrate concentration/Km)} wherein Km is the Michaelis-Menten constant (Chen and Prusoff, Biochem. Pharmacol. 22 (1973), 3099-3108; I. H. Segal, Enzyme Kinetics, 1975, John Wiley & Sons, New York, 100-125; which were incorporated herein by reference). a) Factor Xa Assay
In the assay for determining the inhibition of factor Xa activity TBS-PEG buffer (50 mM Tris-HCl, pH 7.8,200 mM NaCl, 0.05% (w/v) PEG-8000, 0.02% (w/v) NaN3) was used. The IC50 was determined by combining in appropriate wells of a Costar half-area microtiter plate 25 μl human factor Xa (Enzyme Research Laboratories, Inc.; South Bend, Indiana) in TBS-PEG; 40 μl 10% (v/v) DMSO in TBS-PEG (uninhibited control) or various concentrations of the compound to be tested diluted in 10% (v/v) DMSO in TBS-PEG; and substrate S-2765 (N(α)-benzyloxycarbonyl-D-Arg-Gly-L-Arg-p-nitroanilide; Kabi Pharmacia, Inc.; Franklin, Ohio) in TBS-PEG.
The assay was performed by pre-incubating the compound of formulae I and Ia plus enzyme for 10 min. Then the assay was initiated by adding substrate to obtain a final volume of 100 μl. The initial velocity of chromogenic substrate hydrolysis was measured by the change in absorbance at 405 nm using a Bio-tek Instruments kinetic plate reader (Ceres UV900HDi) at 25° C. during the linear portion of the time course (usually 1.5 min after addition of substrate). The enzyme concentration was 0.5 nM and substrate concentration was 140 μM.
For the compound `COC(=O)c1ccc(C(=O)NC2CCN(C(C)C)CC2)n1Cc1cc(-c2ccc(Cl)s2)on1` [Example 10, 1-[5-(5-Chloro-thiophen-2-yl)-isoxazol-3-ylmethyl]-5-(1-isopropyl-piperidin-4-ylcarbamoyl)-1H-pyrrole-2-carboxylic acid methyl ester], the pKi was 8.15.
As to `CC(C)N1CCC(NC(=O)c2cc(C(=O)N3CCCOCC3)cn2CC(=O)Nc2ccc(Cl)cn2)CC1` [Example 5, 1-[(5-Chloro-pyridin-2-ylcarbamoyl)-methyl]-4-(perhydro-1,4-oxazepine-4-carbonyl)-1H-pyrrole-2-carboxylic acid (1-isopropyl-piperidin-4-yl)-amide], the pKi was 7.09.
For the compound `Cc1c(Br)c(C)n(CC(=O)Nc2ccc(Cl)cn2)c1C(=O)NC1CCN(C(C)C)CC1` [Example 24, 4-Bromo-1-[(5-chloro-pyridin-2-ylcarbamoyl)-methyl]-3,5-dimethyl-1H-pyrrole-2-carboxylic acid (1-isopropyl-piperidin-4-yl)-amide], the pKi was 7.96.
`CC(C)N1CCC(NC(=O)c2ccc(C(=O)O)n2Cc2cc(-c3ccc(Cl)s3)on2)CC1` [Example 11, 1-[5-(5-Chloro-thiophen-2-yl)-isoxazol-3-ylmethyl]-5-(1-isopropyl-piperidin-4-ylcarbamoyl)-1H-pyrrole-2-carboxylic acid]: the pKi is 6.53.
To `COC(=O)c1cc(C(=O)NC2CCN(C(C)C)CC2)cn1Cc1cc(-c2ccc(Cl)s2)on1` [Example 16, 1-[5-(5-Chloro-thiophen-2-yl)-isoxazol-3-ylmethyl]-4-(1-isopropyl-piperidin-4-ylcarbamoyl)-1H-pyrrole-2-carboxylic acid methyl ester] belongs 5.84; to `CC(C)N1CCC(NC(=O)c2cc(C(=O)OCc3ccccc3)n(CC(=O)Nc3ccc(Cl)cn3)c2)CC1` [Example 12, 1-[(5-Chloro-pyridin-2-ylcarbamoyl)-methyl]-4-(1-isopropyl-piperidin-4-ylcarbamoyl)-1H-pyrrole-2-carboxylic acid benzyl ester], 4.46.
With `CC(C)N1CCC(NC(=O)c2cc(C(=O)O)n(Cc3cc(-c4ccc(Cl)s4)on3)c2)CC1` [Example 17, 1-[5-(5-Chloro-thiophen-2-yl)-isoxazol-3-ylmethyl]-4-(1-isopropyl-piperidin-4-ylcarbamoyl)-1H-pyrrole-2-carboxylic acid], the pKi was 5.05.
`Cc1c(Br)c(C)n(Cc2cc(-c3ccc(Cl)s3)on2)c1C(=O)NC1CCN(C(C)C)CC1` [Example 23, 4-Bromo-1-[5-(5-chloro-thiophen-2-yl)-isoxazol-3-ylmethyl]-3,5-dimethyl-1H-pyrrole-2-carboxylic acid (1-isopropyl-piperidin-4-yl)-amide]: the pKi is 8.30.
`Cc1c(S(=O)(=O)N2CCCOCC2)c(C)n(Cc2cc(-c3ccc(Cl)s3)on2)c1C(=O)NC1CCN(C(C)C)CC1` [Example 22, 1-[5-(5-Chloro-thiophen-2-yl)-isoxazol-3-ylmethyl]-3,5-dimethyl-4-(perhydro-1,4-oxazepine-4-sulfonyl)-1H-pyrrole-2-carboxylic acid (1-isopropyl-piperidin-4-yl)-amide]: the pKi was 6.95.
As for `COCCNC(=O)c1ccc(C(=O)NC2CCN(C(C)C)CC2)n1Cc1cc(-c2ccc(Cl)s2)on1` [Example 19, 1-[5-(5-Chloro-thiophen-2-yl)-isoxazol-3-ylmethyl]-1H-pyrrole-2,5-di carboxylic acid 2-[(1-isopropyl-piperidin-4-yl)-amide] 5-[(2-methoxy-ethyl)-amide]], the pKi is 7.06.
As for `Cc1cc(C)n(Cc2cc(-c3ccc(Cl)s3)on2)c1C(=O)NC1CCN(C(C)C)CC1` [Example 4, 1-[5-(5-Chloro-thiophen-2-yl)-isoxazol-3-ylmethyl]-3,5-dimethyl-1H-pyrrole-2-carboxylic acid (1-isopropyl-piperidin-4-yl)-amide], the figure is 7.96.
As for `CC(C)N1CCC(NC(=O)c2cc([N+](=O)[O-])cn2Cc2cc(-c3ccc(Cl)s3)on2)CC1` [Example 3, 1-[5-(5-Chloro-thiophen-2-yl)-isoxazol-3-ylmethyl]-4-nitro-1H-pyrrole-2-carboxylic acid (1-isopropyl-piperidin-4-yl)-amide], the pKi is 7.37.
Turning to `Cc1c(C=O)c(C)n(Cc2cc(-c3ccc(Cl)s3)on2)c1C(=O)NC1CCN(C(C)C)CC1` [Example 25, 1-[5-(5-Chloro-thiophen-2-yl)-isoxazol-3-ylmethyl]-4-formyl-3,5-dimethyl-1H-pyrrole-2-carboxylic acid (1-isopropyl-piperidin-4-yl)-amide], the pKi was 7.62.
In the case of `CC(C)N1CCC(NC(=O)c2cccn2Cc2cc(-c3ccc(Cl)s3)on2)CC1` [Example 1, 1-[5-(5-Chloro-thiophen-2-yl)-isoxazol-3-ylmethyl]-1H-pyrrole-2-carboxylic acid (1-isopropyl-piperidin-4-yl)-amide], the pKi was 7.11.
For `CC(C)N1CCC(NC(=O)c2cc(C(=O)OCc3ccccc3)n(Cc3cc(-c4ccc(Cl)s4)on3)c2)CC1` [Example 13, 1-[5-(5-Chloro-thiophen-2-yl)-isoxazol-3-ylmethyl]-4-(1-isopropyl-piperidin-4-ylcarbamoyl)-1H-pyrrole-2-carboxylic acid benzyl ester], the pKi was 5.02.
As for `CC(C)N1CCC(NC(=O)c2ccc(-c3ccccc3)n2Cc2cc(-c3ccc(Cl)s3)on2)CC1` [Example 21, 1-[5-(5-Chloro-thiophen-2-yl)-isoxazol-3-ylmethyl]-5-phenyl-1H-pyrrole-2-carboxylic acid (1-isopropyl-piperidin-4-yl)-amide], the pKi is 8.30.
Regarding `COc1cccc(Cn2cccc2C(=O)NC2CCN(C(C)C)CC2)c1` [Example 2, 1-(3-Methoxy-benzyl)-1H-pyrrole-2-carboxylic acid (1-isopropyl-piperidin-4-yl)-amide], the pKi was 5.09.
As for `CC(C)N1CCC(NC(=O)c2ccc(C(=O)OCc3ccccc3)n2Cc2cc(-c3ccc(Cl)s3)on2)CC1` [Example 9, 1-[5-(5-Chloro-thiophen-2-yl)-isoxazol-3-ylmethyl]-5-(1-isopropyl-piperidin-4-ylcarbamoyl)-1H-pyrrole-2-carboxylic acid benzyl ester], the negative-log Ki (pKi) is 6.00.
As for `COCCN(C)C(=O)c1ccc(C(=O)NC2CCN(C(C)C)CC2)n1Cc1cc(-c2ccc(Cl)s2)on1` [Example 20, 1-[5-(5-Chloro-thiophen-2-yl)-isoxazol-3-ylmethyl]-1H-pyrrole-2,5-dicarboxylic acid 2-[(1-isopropyl-piperidin-4-yl)-amide] 5-[(2-methoxy-ethyl)-methyl-amide]], the figure is 7.24.
As for `COC(=O)c1cc(C(=O)NC2CCN(C(C)C)CC2)cn1CC(=O)Nc1ccc(Cl)cn1` [Example 15, 1-[(5-Chloro-pyridin-2-ylcarbamoyl)-methyl]-4-(1-isopropyl-piperidin-4-ylcarbamoyl)-1H-pyrrole-2-carboxylic acid methyl ester], the negative-log Ki (pKi) is 4.38.
Consider `Cc1c(CCC(=O)O)c(C)n(Cc2cc(-c3ccc(Cl)s3)on2)c1C(=O)NC1CCN(C(C)C)CC1` [Example 8, 3-[1-[5-(5-Chloro-thiophen-2-yl)-isoxazol-3-ylmethyl]-5-(1-isopropyl-piperidin-4-ylcarbamoyl)-2,4-dimethyl-1H-pyrrol-3-yl]-propionic acid], for which the pKi is 6.82.
For `CC(C)N1CCC(NC(=O)c2cc([N+](=O)[O-])cn2CC(=O)Nc2ccc(Cl)cn2)CC1` [Example 14, 1-[(5-Chloro-pyridin-2-ylcarbamoyl)-methyl]-4-nitro-1H-pyrrole-2-carboxylic acid (1-isopropyl-piperidin-4-yl)-amide], the pKi is 7.23.
As for `CC(C)N1CCC(NC(=O)c2ccc(C(=O)N3CCCOCC3)n2Cc2cc(-c3ccc(Cl)s3)on2)CC1` [Example 7, 1-[5-(5-Chloro-thiophen-2-yl)-isoxazol-3-ylmethyl]-5-(perhydro-1,4-oxazepine-4-carbonyl)-1H-pyrrole-2-carboxylic acid (1-isopropyl-piperidin-4-yl)-amide], the pKi is 6.60.
As for `CC(C)N1CCC(NC(=O)c2ccc(C(=O)N3CCCOCC3)n2CC(=O)Nc2ccc(Cl)cn2)CC1` [Example 6, 1-[(5-Chloro-pyridin-2-ylcarbamoyl)-methyl]-5-(perhydro-1,4-oxazepine-4-carbonyl)-1H-pyrrole-2-carboxylic acid (1-isopropyl-piperidin-4-yl)-amide], the figure is 6.04.
